# Measurements as given in paper PMC1660542, “Structure-based discovery of inhibitors of the YycG histidine kinase: New chemical leads to combat Staphylococcus epidermidis infections” (BMC Microbiology, 2006).
# pIC50: −log10 of the molar value.
# Experiments:
# [1] = biological target: T1, YycG' protein (Staphylococcus epidermidis, UniProt Q8CU87); experiment: Inhibition of YycG' ATPase activity / autophosphorylation (Kinase-Glo Luminescent Kinase Assay); type: biochemical; conditions: 3 μM ATP
# T1 construct: of YycG (370aa to 610aa) was amplified by PCR; His-tag (pET28a) (N); made in house; host or cells: E. coli BL21 (pET28a, pETYycG')
# T1 sequence (Q8CU87 370-610): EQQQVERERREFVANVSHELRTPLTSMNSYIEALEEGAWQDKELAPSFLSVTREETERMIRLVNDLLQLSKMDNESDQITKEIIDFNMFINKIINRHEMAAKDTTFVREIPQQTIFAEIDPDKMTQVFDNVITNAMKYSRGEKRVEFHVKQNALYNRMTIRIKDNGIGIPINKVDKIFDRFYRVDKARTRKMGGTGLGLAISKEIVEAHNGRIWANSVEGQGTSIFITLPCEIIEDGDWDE
# Protocol: The inhibitory activities of the compounds for the ATPase activity of the YycG' protein was measured using the Kinase-Glo™ Luminescent Kinase Assay (Promega, Madison, USA). Briefly, 4 μg YycG' protein was pre-incubated with a series of dilution of compounds in the reaction buffer (40 mM Tris [pH 7.5], 20 mM MgCl2, and 0.1 mg/ml BSA), at 25°C for 30 min. Then 3 μM ATP was added for another incubation of 30 min at 25°C, and Kinase-Glo™ Reagent was added to detect the rest amount of ATP, as recorded from luminescence measurements (RLU). In parallel, theYycG' protein with no addition of compounds was used as the control. The rate of inhibiting protein phosphorylation (Rp) by the compounds was calculated from equation 1:
# Rp=RLU(YycG^′+compound+ATP+Reagent)−RLU(YycG^′+ATP+Reagent)/RLU(ATP+Reagent)−RLU(YycG^′+ATP+Reagent)×100% (1) MathType@MTEF@5@5@+=feaafiart1ev1aaatCvAUfKttLearuWrP9MDH5MBPbIqV92AaeXatLxBI9gBaebbnrfifHhDYfgasaacH8akY=wiFfYdH8Gipec8Eeeu0xXdbba9frFj0=OqFfea0dXdd9vqai=hGuQ8kuc9pgc9s8qqaq=dirpe0xb9q8qiLsFr0=vr0=vr0dc8meaabaqaciaacaGaaeqabaqabeGadaaakeaacqqGsbGudaWgaaWcbaGaeeiCaahabeaakiabg2da9maalaaabaGaeeOuaiLaeeitaWKaeeyvauLaeiikaGIaeeywaKLaeeyEaKNaee4yamMafe4raCKbauaacqGHRaWkcqqGJbWycqqGVbWBcqqGTbqBcqqGWbaCcqqGVbWBcqqG1bqDcqqGUbGBcqqGKbazcqGHRaWkcqqGbbqqcqqGubavcqqGqbaucqGHRaWkcqqGsbGucqqGLbqzcqqGHbqycqqGNbWzcqqGLbqzcqqGUbGBcqqG0baDcqGGPaqkcqGHsislcqqGsbGucqqGmbatcqqGvbqvcqGGOaakcqqGzbqwcqqG5bqEcqqGJbWycuqGhbWrgaqbaiabgUcaRiabbgeabjabbsfaujabbcfaqjabgUcaRiabbkfasjabbwgaLjabbggaHjabbEgaNjabbwgaLjabb6gaUjabbsha0jabcMcaPaqaaiabbkfasjabbYeamjabbwfavjabcIcaOiabbgeabjabbsfaujabbcfaqjabgUcaRiabbkfasjabbwgaLjabbggaHjabbEgaNjabbwgaLjabb6gaUjabbsha0jabcMcaPiabgkHiTiabbkfasjabbYeamjabbwfavjabcIcaOiabbMfazjabbMha5jabbogaJjqbbEeahzaafaGaey4kaSIaeeyqaeKaeeivaqLaeeiuaaLaey4kaSIaeeOuaiLaeeyzauMaeeyyaeMaee4zaCMaeeyzauMaeeOBa4MaeeiDaqNaeiykaKcaaiabgEna0kabigdaXiabicdaWiabicdaWiabcwcaLiaaxMaacaWLjaWaaeWaaeaacqaIXaqmaiaawIcacaGLPaaaaaa@A46C@
# IC50 (the concentration of inhibition of 50% YycG' protein autophosphorylation) was obtained by using the Origin v7.0 software (OriginLab, Northampton, USA).
# [2] = test system: S. pyogenes 144; experiment: MIC assay (broth dilution in tubes, CLSI); type: cell-based, Streptococcus pyogenes; conditions: Streptococcus pyogenes; S. pyogenes 144; read-out: Minimal inhibitory concentration (MIC)
# Source text: Staphylococcus epidermidis ATCC12228 and RP62A strains were purchased from the American Type Culture Collection (ATCC, Manassas, USA). Staphylococcus aureus ATCC29213, Escherichia coli ATCC25922 and Pseudomonas aeruginosa ATCC27853 were kindly provided by Dr. Bijie Hu at Zhongshan Hospital (Shanghai, China). S. epidermidis strains se527, se886, se847, seG203, Streptococcus pyogenes strain 144, and Streptococcus mutans strain 128 were all clinical isolates from Zhongshan Hospital and Huashan Hospital (Shanghai, China). If not stated otherwise, S. epidermidis and S. aureus strains were grown at 37°C in tryptic soy broth (TSB, Oxoid) containing 0.25% glucose, E. coli and P. aeruginosa strains were grown at 37°C in Luria-Bertani (LB, Oxoid).
# (§1) MIC assays for the antibacterial activities of the compounds were performed according to the broth micro-dilution (in tubes) method of the Clinical and Laboratory Standards Institute (CLSI) of America. The Minimal Bactericidal Concentration (MBC) was obtained by subculturing 100 μl from each negative (no visible bacterial growth) tube from the MIC assay, onto substance-free Mueller-Hinton agar plates. The plates were incubated at 37°C for 24 hours, and the MBC was defined as the lowest concentration of substance which produced subcultures growing no more than five colonies on each plate.
# [3] = test system: S. epidermidis RP62A; experiment: Minimal bactericidal concentration (MBC) assay; type: cell-based; conditions: Staphylococcus epidermidis; S. epidermidis RP62A; read-out: Minimal bactericidal concentration (MBC)
# Protocol: as §1
# [4] = test system: S. epidermidis ATCC12228; experiment: Minimal bactericidal concentration (MBC) assay; type: cell-based; conditions: Staphylococcus epidermidis
# Protocol: as §1
# [5] = Cytotoxicity on Vero cell (MTT, Cell Proliferation Kit I); type: cell-based, African Green-monkey; conditions: African green monkey, Vero cells, highest concentration tested 200 μM
# Protocol: Cytotoxicity of the antibacterial compounds on cultured Vero cell was measured by using the Cell Proliferation Kit I (MTT) (Roche, Indianapolis, USA) according to the manufacturer's protocol. Addition of DMSO (1%) in the medium produced a slight cytotoxicity on Vero cell, which could easily be corrected for. Each assay was performed in quadruplicate and repeated three times. The results were converted to percentage of the control (cells only treated with 1% DMSO) and CC50 (concentrations that produce a 50% cytotoxicity effect on Vero cell) was calculated by the Origin v7.0 software (OriginLab, Northampton, USA). Hemolytic activities of the compounds were determined by using healthy human erythrocytes. The erythrocytes were washed three times in sterile saline and resuspended to 5% prior to the assay. […] Cells without compound treatment and cells with 1% Triton-100 treatment were used as 0% and 100% hemolysis controls, respectively. The cell suspensions were incubated for 1 hour at 37°C and centrifuged at 1000×g for 10 min. Volumes of 100 μl supernatants were transferred to another sterile plate and hemoglobin release from the cells was determined at 570 nm. […] The hemolysis assays were repeated twice.
smiles,measurement,setting,value
Cc1ccc(NC(=O)CN2C(=O)S/C(=C\c3ccc(OCc4cccc(C(O)O)c4)cc3)C2=O)cc1 [Compound 7],pIC50,"[1]; 4 μg YycG' protein, read-out: IC50 for YycG'",5.19
same,inhibition at 50 µM,"[1]; compound 50 μM, 4 μg protein, read-out: Inhibition of YycG' phosphorylation (decrease of ATPase activity)",86%
same,MIC,[2],> 200 µM
same,MBC,[3],> 400 µM
same,MBC,[4],> 400 µM
same,CC50,[5],> 200 µM
